Measured values published in paper PMC10987543 (Cell Death Discovery, 2024).
Peptide text beside a SMILES is read from it. * marks the point of attachment. Cbz = O=C(OCc1ccccc1)*; CH2F = FC*

Tests used:
[1] = tested on: 4T1 cells; assay: LDH release assay (CyQUANT); format: cell-based, murine; settings: N = 3; for effect of inhibitor pretreatment on CKS1-induced release of LDH: 30 min pre-treatment (50 µM Z-VAD, 50 µM Nec-1s, 1 µM Fer-1), then 100 µM CKS1 6 hours; for release of LDH (oncolytic activity): 100 µM of the indicated peptides for 6 h, normalized to lysis buffer
Protocol: Ten thousand cells were seeded in a 96-well plate and incubated overnight. The cells were washed once, and the medium was replaced with serum-free media. Cells were treated with CKS1 for the indicated time and concentration. CyQUANT LDH cytotoxicity assay (Thermo Fisher Scientific) was used following the manufacturer’s instructions to measure the release of LDH. LDH release was normalized to the amount of LDH released from cells treated with lysis buffer.

[2] = tested on: 4T1 cells; assay: Calcein-AM live cell imaging of cytosol release; format: cell-based, murine; settings: 4T1 cells, 50 µM Z-VAD 30 minutes, then 100 µM CKS1
Protocol: Fluorescence labeling of cells was performed by seeding 5.0 × 10^4 4T1 cells in a 35 mm dish on a collagen-coated No. 1.5 coverslip with a 14 mm glass diameter (MatTek, Ashland, MA). After overnight incubation, the cells were washed once with serum-free media and replaced with fresh serum-free media. For cell cytosol labeling, Calcein-AM (Thermo Fisher Scientific, C1430) was added at a final concentration of 5 µg/mL and incubated for 10 min. For mitochondrial membrane labeling, JC-1 (Thermo Fisher Scientific, T3168) was added at a final concentration of 10 µg/mL and incubated for 10 min. To monitor the activity of caspases, CellEvent Caspase-3/7 Red detection reagents (Thermo Fisher Scientific, C10423) were used following the manufacturer’s instructions. For nuclear staining, Hoechst 33342 (Cell Signaling Technology, #4082) was added at a final concentration of 5 µg/mL and incubated for 10 min.
Cells were imaged on either a Zeiss LSM 700 or a 3i spinning disk confocal microscope. Samples were imaged with optimized microscope settings. Z-stack, time-lapse, or multi-channel acquisition settings were adjusted based on the experimental requirements. Images were then acquired with the appropriate excitation and emission wavelengths for each fluorophore.
Image processing was performed using Fiji software. For each image/video, the brightness and the contrast were adjusted. The time stamp and the scale bar were added. For quantification, CellProfiler was used. After cell segmentation based on the nucleus, the intensity of the signal of interest was quantified for each cell. Based on the intensity, each cells were labeled as positive or negative and the fraction of positive cells was calculated.

[3] = Solubility in water; settings: data not shown
[4] = tested on: caspase-3; settings: cited from earlier work
Source text: The factors that determine whether a peptide induces apoptosis or not are not fully known. […] Although the mechanism of how CKS1 treatment affects the mitochondria remains unanswered, the malfunctioning of mitochondria caused by CKS1 may be the ...

Compound | effect of inhibitor pretreatment on CKS1-induced release of LDH [1] | release of LDH (oncolytic activity) [1] | other results
COC(=O)C[C@H](NC(=O)[C@H](C)NC(=O)[C@@H](NC(=O)OCc1ccccc1)C(C)C)C(=O)CF [Z-VAD, reference compound] (Cbz-Val-Ala-Asp(OMe)-CH2F) | did not inhibit the release of LDH |  | effect of inhibitor pretreatment on CKS1-induced release of calcein [2]: did not inhibit nor slow down the release of calcein
NGRKACLNPASPIVEEIIEEMLNS [NC1, mutant of CKS1, three lysines replaced with glutamic acids, anionic] |  | did not show oncolytic activity | 
IVKKIIEKMLNS [helical region of CKS1] |  | induced LDH release | solubility in water [3]: poorly soluble in water
CN1C(=O)NC(Cc2c[nH]c3c(Cl)cccc23)C1=O (stereo not shown) [Nec-1s, necrostatin-1 stable, reference compound] | did not inhibit the release of LDH |  | 
NGRKACLNPASP [loop region of CKS1, peptide that contains the N-terminal loop region of CKS1] |  | did not | 
CCOC(=O)c1ccc(NC2CCCCC2)c(N)c1 [Fer-1, ferrostatin-1, reference compound] | did not inhibit the release of LDH |  | 
LTX-315 |  |  | caspase-3 activity [4]: failed to stimulate caspase-3 activity
NGRKACLNPASPIVKKIIPEKMLNS [NC2, mutant of CKS1, single proline inserted in the middle of the α-helix] |  | did not show oncolytic activity | 
